Data published in ChEMBL document CHEMBL5042496, “An unanticipated discovery towards novel naphthalimide corbelled aminothiazoximes as potential anti-MRSA agents and allosteric modulators for PBP2a” (Eur J Med Chem, 2022).
Converted amounts (≈) assume the structure as drawn.

Legend:
Staphylococcus aureus [1] = experiment: Antibacterial activity against methicillin-resistant Staphylococcus aureus assessed as bacterial growth inhibition measured after 24 hrs by two fold serial dilution technique; type: functional
Enterococcus faecium = experiment: Antibacterial activity against Enterococcus faecium assessed as bacterial growth inhibition measured after 24 hrs by two fold serial dilution technique; type: functional
Staphylococcus aureus [2] = experiment: Antibacterial activity against Staphylococcus aureus assessed as bacterial growth inhibition measured after 24 hrs by two fold serial dilution technique; type: functional
Staphylococcus aureus [3] = experiment: Antibacterial activity against Staphylococcus aureus ATCC 25923 assessed as bacterial growth inhibition measured after 24 hrs by two fold serial dilution technique; type: functional
Staphylococcus aureus [4] = experiment: Antibacterial activity against Staphylococcus aureus ATCC 29213 assessed as bacterial growth inhibition measured after 24 hrs by two fold serial dilution technique; type: functional
Klebsiella pneumoniae = experiment: Antibacterial activity against Klebsiella pneumoniae assessed as bacterial growth inhibition measured after 24 hrs by two fold serial dilution technique; type: functional
Escherichia coli [5] = experiment: Antibacterial activity against Escherichia coli assessed as bacterial growth inhibition measured after 24 hrs by two fold serial dilution technique; type: functional
Pseudomonas aeruginosa [6] = experiment: Antibacterial activity against Pseudomonas aeruginosa assessed as bacterial growth inhibition measured after 24 hrs by two fold serial dilution technique; type: functional
Acinetobacter baumannii = experiment: Antibacterial activity against Acinetobacter baumannii assessed as bacterial growth inhibition measured after 24 hrs by two fold serial dilution technique; type: functional
Pseudomonas aeruginosa [7] = experiment: Antibacterial activity against Pseudomonas aeruginosa ATCC 27853 assessed as bacterial growth inhibition measured after 24 hrs by two fold serial dilution technique; type: functional
Escherichia coli [8] = experiment: Antibacterial activity against Escherichia coli ATCC 25922 assessed as bacterial growth inhibition measured after 24 hrs by two fold serial dilution technique; type: functional
[9] = Hemolytic activity in human RBC assessed as hemolysis incubated for 1 hr; type: toxicity, cell-based, Erythrocyte; settings: red blood cells
Staphylococcus = experiment: Binding affinity to Staphylococcus aureus PBP2a measured after 6 hrs by ELISA; settings: filed as positive allosteric modulator

Row | SMILES | MIC (Staphylococcus aureus [1]) [µg/mL] | MIC (Enterococcus faecium) [µg/mL] | MIC (Staphylococcus aureus [2]) [µg/mL] | MIC (Staphylococcus aureus [3]) [µg/mL] | MIC (Staphylococcus aureus [4]) [µg/mL] | MIC (Klebsiella pneumoniae) [µg/mL] | MIC (Escherichia coli [5]) [µg/mL] | MIC (Pseudomonas aeruginosa [6]) [µg/mL] | MIC (Acinetobacter baumannii) [µg/mL] | MIC (Pseudomonas aeruginosa [7]) [µg/mL] | MIC (Escherichia coli [8]) [µg/mL] | HC50 at 1 h [9] [µg/mL] | Activity (Staphylococcus) [µg/mL]
1 | CO/N=C(\C(=O)N1CCN(c2ccc3c4c(cccc24)C(=O)N(NCCO)C3=O)CC1)c1csc(N)n1 | 4 (≈ 7.64 µM) | 64 (≈ 122 µM) | 64 (≈ 122 µM) | 8 (≈ 15.3 µM) | 64 (≈ 122 µM) | 16 (≈ 30.6 µM) | 2 (≈ 3.82 µM) | 32 (≈ 61.1 µM) | 16 (≈ 30.6 µM) | 32 (≈ 61.1 µM) | 128 (≈ 244 µM) | 325 | –
2 | CO/N=C(\C(=O)N1CCN(c2ccc3c4c(cccc24)C(=O)N(CCO)C3=O)CC1)c1csc(N)n1 | 2 (≈ 3.93 µM) | 16 (≈ 31.5 µM) | 64 (≈ 126 µM) | 16 (≈ 31.5 µM) | 32 (≈ 62.9 µM) | 64 (≈ 126 µM) | 16 (≈ 31.5 µM) | 16 (≈ 31.5 µM) | 16 (≈ 31.5 µM) | 64 (≈ 126 µM) | 64 (≈ 126 µM) | 214 | –
3 | CCON1C(=O)c2cccc3c(N4CCN(C(=O)/C(=N\OC)c5csc(N)n5)CC4)ccc(c23)C1=O | 8 (≈ 15.7 µM) | 8 (≈ 15.7 µM) | 128 (≈ 252 µM) | 64 (≈ 126 µM) | 32 (≈ 62.9 µM) | 16 (≈ 31.5 µM) | 64 (≈ 126 µM) | 64 (≈ 126 µM) | 2 (≈ 3.93 µM) | 32 (≈ 62.9 µM) | 64 (≈ 126 µM) | 509 | –
4 | CO/N=C(\C(=O)N[C@@H]1C(=O)N2C(C(=O)O)=CCS[C@H]12)c1csc(N)n1 | – | – | – | – | – | – | – | – | – | – | – | – | 7.45
5 | CO/N=C(\C(=O)N1CCN(c2ccc3c4c(cccc24)C(=O)N(CCC(=O)O)C3=O)CC1)c1csc(N)n1 | 8 (≈ 14.9 µM) | 16 (≈ 29.8 µM) | 64 (≈ 119 µM) | 16 (≈ 29.8 µM) | 64 (≈ 119 µM) | 128 (≈ 239 µM) | 8 (≈ 14.9 µM) | 16 (≈ 29.8 µM) | 16 (≈ 29.8 µM) | 32 (≈ 59.6 µM) | 64 (≈ 119 µM) | 210 | –
6 | CO/N=C(\C(=O)N1CCN(c2ccc3c4c(cccc24)C(=O)N(c2nccs2)C3=O)CC1)c1csc(N)n1 | 2 (≈ 3.65 µM) | 16 (≈ 29.2 µM) | 16 (≈ 29.2 µM) | 16 (≈ 29.2 µM) | 32 (≈ 58.4 µM) | 64 (≈ 117 µM) | 16 (≈ 29.2 µM) | 64 (≈ 117 µM) | 16 (≈ 29.2 µM) | 64 (≈ 117 µM) | 64 (≈ 117 µM) | 311 | –
